Structures are written as SMILES.

Here are results for one molecule from PMC6934184, “Selective DNA-PKcs inhibition extends the therapeutic index of localized radiotherapy and chemotherapy” (The Journal of Clinical Investigation, 2019).

This assay deals with T1, ICK (Homo sapiens, UniProt Q9UPZ9).
T1 construct: purchased Thermo Fisher Scientific (Life Technologies) SelectScreen
The assay can be described thus: SelectScreen LanthaScreen. The assay is classed as binding. The conditions noted are these: read-out: % displacement. The essentials:
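Percent values come from Thermo SelectScreen profiling of NU5455, combining activity and binding assays. CSF1R was run in Z'LYTE format at Km app ATP, and CAMK1 in Adapta format with ATP listed at 10.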

T1 sequence (Q9UPZ9 whole entry): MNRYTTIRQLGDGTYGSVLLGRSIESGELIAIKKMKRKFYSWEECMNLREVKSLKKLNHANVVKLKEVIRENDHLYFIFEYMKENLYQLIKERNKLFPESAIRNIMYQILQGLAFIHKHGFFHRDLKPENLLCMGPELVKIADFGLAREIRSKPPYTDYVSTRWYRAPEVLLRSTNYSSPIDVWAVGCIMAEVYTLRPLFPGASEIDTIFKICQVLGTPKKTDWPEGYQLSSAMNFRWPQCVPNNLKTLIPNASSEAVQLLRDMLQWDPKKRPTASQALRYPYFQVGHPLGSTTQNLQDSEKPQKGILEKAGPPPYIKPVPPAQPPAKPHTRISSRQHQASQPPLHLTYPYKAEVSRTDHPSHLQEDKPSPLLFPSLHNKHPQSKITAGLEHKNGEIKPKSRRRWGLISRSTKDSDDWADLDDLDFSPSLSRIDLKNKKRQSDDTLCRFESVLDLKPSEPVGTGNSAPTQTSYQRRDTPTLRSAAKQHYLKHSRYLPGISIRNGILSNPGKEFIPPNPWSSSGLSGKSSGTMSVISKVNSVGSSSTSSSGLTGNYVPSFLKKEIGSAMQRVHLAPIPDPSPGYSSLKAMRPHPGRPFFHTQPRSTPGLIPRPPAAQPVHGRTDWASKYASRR

`CN(C(=O)CN1CCOCC1)c1ccc2sc3c(-c4cccc5c(=O)cc(N6CC7CCC(C6)O7)oc45)cccc3c2c1` [NU5455]: the inhibition at 1 µM stood at 0%.
